One test has as its target T1, IKKε (Homo sapiens, UniProt Q14164).
T1 sequence (Q14164 1-716): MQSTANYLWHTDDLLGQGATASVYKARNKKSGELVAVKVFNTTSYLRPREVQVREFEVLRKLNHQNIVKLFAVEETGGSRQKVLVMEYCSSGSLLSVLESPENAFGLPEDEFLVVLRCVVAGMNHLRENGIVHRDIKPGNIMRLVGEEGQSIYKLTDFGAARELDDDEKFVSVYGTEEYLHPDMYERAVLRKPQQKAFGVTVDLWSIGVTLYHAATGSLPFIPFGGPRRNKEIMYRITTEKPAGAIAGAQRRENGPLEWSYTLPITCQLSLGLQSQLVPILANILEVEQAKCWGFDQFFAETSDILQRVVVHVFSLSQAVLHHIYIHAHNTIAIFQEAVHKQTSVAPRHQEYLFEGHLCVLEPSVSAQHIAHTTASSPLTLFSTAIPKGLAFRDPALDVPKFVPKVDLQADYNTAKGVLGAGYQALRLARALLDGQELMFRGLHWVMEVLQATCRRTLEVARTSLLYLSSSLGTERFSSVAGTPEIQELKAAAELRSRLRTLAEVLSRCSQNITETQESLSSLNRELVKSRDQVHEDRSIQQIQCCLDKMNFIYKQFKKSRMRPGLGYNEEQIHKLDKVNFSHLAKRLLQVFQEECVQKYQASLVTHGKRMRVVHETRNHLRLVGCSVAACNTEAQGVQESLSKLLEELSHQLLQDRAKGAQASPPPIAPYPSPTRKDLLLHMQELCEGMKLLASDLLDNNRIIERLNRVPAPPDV
Nature of the test: IKKε biochemical assay. The note with it: 10 point 1:4 dose response, 30 uM top concentration, 90 min at 25° C., LabChip EZ Reader II; read-out: IKKε_IC50. The method, boiled down:
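Compounds in 1% DMSO final were incubated with IKKε enzyme and substrate at 25° C. for 90 min, then stopped. Substrate and product peaks were resolved by LabChip EZ Reader II mobility-shift read-out. Staurosporine at 10 uM final served as the full-inhibition control.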

A further test concerns the target T2, TBK1 (Homo sapiens, UniProt Q9UHD2).
T2 sequence (Q9UHD2 1-729): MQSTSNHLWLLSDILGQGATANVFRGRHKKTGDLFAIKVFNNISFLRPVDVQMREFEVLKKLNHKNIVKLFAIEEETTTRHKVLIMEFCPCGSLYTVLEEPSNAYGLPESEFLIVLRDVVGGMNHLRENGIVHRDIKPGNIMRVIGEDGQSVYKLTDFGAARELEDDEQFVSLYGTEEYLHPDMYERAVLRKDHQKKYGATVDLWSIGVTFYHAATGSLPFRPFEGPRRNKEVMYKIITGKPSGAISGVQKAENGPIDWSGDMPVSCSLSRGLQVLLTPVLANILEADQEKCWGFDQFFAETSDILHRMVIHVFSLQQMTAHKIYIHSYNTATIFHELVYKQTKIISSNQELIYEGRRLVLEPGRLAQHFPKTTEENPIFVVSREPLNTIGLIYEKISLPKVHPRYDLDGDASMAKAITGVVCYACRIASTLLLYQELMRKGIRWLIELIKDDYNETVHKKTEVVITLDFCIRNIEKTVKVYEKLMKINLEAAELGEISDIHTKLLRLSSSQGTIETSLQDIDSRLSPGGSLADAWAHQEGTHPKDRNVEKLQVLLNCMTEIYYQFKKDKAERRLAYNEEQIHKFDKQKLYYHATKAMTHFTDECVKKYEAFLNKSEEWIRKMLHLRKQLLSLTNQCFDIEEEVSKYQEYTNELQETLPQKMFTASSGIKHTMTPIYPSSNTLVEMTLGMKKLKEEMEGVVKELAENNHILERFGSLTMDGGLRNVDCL
Nature of the test: TBK biochemical assay. The conditions noted are these: 10 point 1:4 dose response, 30 uM top concentration, 90 min at 25° C., LabChip EZ Reader II; read-out: TBK1_IC50. The essentials:
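Substrate and product were separated and quantified by microfluidic mobility-shift read (LabChip). 10 uM staurosporine served as the full-inhibition control, and the reference compound was tested from 1 uM final.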

Turning to `COc1nc(Nc2nccc(-c3ccc(O[C@@H]4CCN(C(=O)[C@H](C)O)CC4(F)F)c(C#N)c3)n2)ccc1N1CCN(C2COC2)[C@@H](C)C1` [Example 248, 2 2-[(R)-3,3-Difluoro-1-((S)-2-hydroxy-propionyl)-piperidin-4-yloxy]-5-{2-[6-methoxy-5-((S)-3-methyl-4-oxetan-3-yl-piperazin-1-yl)-pyridin-2-ylamino]-pyrimidin-4-yl}-benzonitrile], the IC50 at IKKε and at TBK1 was under 100 nM throughout.
Take `COc1nc(Nc2nccc(-c3ccc(OC4CCN(C(=O)[C@H](C)O)CC4(F)F)c(C#N)c3)n2)ccc1C(=O)N(C)C` (stereo partly drawn) [Example 324, 6-([4-[3-cyano-4-([3,3-difluoro-1-[(2S)-2-hydroxypropanoyl]piperidin-4-yl]oxy)phenyl]pyrimidin-2-yl]amino)-2-methoxy-N,N-dimethylpyridine-3-carboxamide]: the IC50 at IKKε and on TBK1 was under 100 nM throughout.
As for `COc1nc(Nc2ncc(F)c(-c3ccc(OC4CCN(C(=O)C(C)O)CC4(F)F)c(C#N)c3)n2)ccc1N1CCN(C2COC2)CC1` (stereo not drawn) [Example 291, 2-{[33-difluoro-1-(2-hydroxypropanoyl)piperidin-4-yl]oxy}-5-[5-fluoro-2-({6-methoxy-5-[4-(oxetan-3-yl)piperazin-1-yl]pyridin-2-yl}amino)pyrimidin-4-yl]], the IC50 at IKKε and at TBK1 was under 100 nM in each case.
As to `COc1cc(Nc2nccc(-c3ccc(OC4CCN(C(=O)[C@@H](C)O)CC4)c(C#N)c3)n2)cnc1N1CCN(C2COC2)CC1` [Example 321, 2-([1-[(2R)-2-hydroxypropanoyl]piperidin-4-yl]oxy)-5-[2-([5-methoxy-6-[4-(oxetan-3-yl)piperazin-1-yl]pyridin-3-yl]amino)pyrimidin-4-yl]benzonitrile], the IC50 on IKKε and on TBK1 was under 100 nM throughout.
For the molecule `N#Cc1cc(-c2ccnc(Nc3ccc(N4CCN(C5COC5)CC4)cc3)n2)ccc1OC1CCN(C(=O)CO)CC1(F)F` (stereo not drawn) [Example 137, 2-[[3,3-difluoro-1-(2-hydroxyacetyl)piperidin-4-yl]oxy]-5-[2-([4-[4-(oxetan-3-yl)piperazin-1-yl]phenyl]amino)pyrimidin-4-yl]benzonitrile], the IC50 at IKKε and at TBK1 was under 100 nM in each case.
For `COc1nc(Nc2nccc(-c3ccc(OC4CCN(C(=O)CO)CC4(F)F)c(C#N)c3)n2)ccc1C1CCN(C2COC2)CC1` (stereo not drawn) [Example 154, 2-[3,3-Difluoro-1-(2-hydroxy-acetyl)-piperidin-4-yloxy]-5-[2-(2-methoxy-1′-oxetan-3-yl-1′,2′,3′,4′,5′,6′-hexahydro-[3,4′]bipyridinyl-6-ylamino)-pyrimidin-4-yl]-benzonitrile], the IC50 on IKKε and on TBK1 was under 100 nM each time.
In the case of `COc1nc(Nc2nccc(-c3ccc(N4CC5(CCN(C(=O)[C@H](C)O)CC5)C4)c(C#N)c3)n2)ccc1N1CCN(C2COC2)CC1` [Example 314, 2-[7-((S)-2-Hydroxy-propionyl)-2,7-diaza-spiro[3.5]non-2-yl]-5-{2-[6-methoxy-5-(4-oxetan-3-yl-piperazin-1-yl)-pyridin-2-ylamino]-pyrimidin-4-yl}-benzonitrile], the IC50 at IKKε and on TBK1 was under 100 nM throughout.
Turning to `COc1nc(Nc2nccc(-c3ccc(N4CCC5(CC4)CNC5)c(C#N)c3)n2)ccc1N1CCN(C2COC2)CC1` [Example 313, 2-(2,7-Diaza-spiro[3.5]non-7-yl)-5-{2-[6-methoxy-5-(4-oxetan-3-yl-piperazin-1-yl)-pyridin-2-ylamino]-pyrimidin-4-yl}-benzonitrile], the IC50 at IKKε is 100 to 1000 nM; at TBK1 it was under 100 nM.
Taken in the same sequence, the figures for `COc1nc(Nc2nccc(-c3ccc(O[C@@H]4CCN(C(=O)[C@H](C)O)C[C@H]4F)c(C#N)c3)n2)ccc1N1CCN(C2COC2)CC1` [Example 202, 2-[(3R,4R)-3-Fluoro-1-((S)-2-hydroxy-propionyl)-piperidin-4-yloxy]-5-{2-[6-methoxy-5-(4-oxetan-3-yl-piperazin-1-yl)-pyridin-2-ylamino]-pyrimidin-4-yl}-benzonitrile] were under 100 nM and under 100 nM.

These data come from patent publication US20230019491A1, “PYRIMIDINE TBK/IKKe INHIBITOR COMPOUNDS AND USES THEREOF” (Merck Patent GmbH, priority 2017, published 2023).
